Laboratory results reported in the NIST ThermoML archive (doi:10.1021/je050183a).

Assays:
[1] = 101 kPa, Liquid; for viscosity: Capillary tube (Ostwald / Ubbelohde) method; for speed of sound: Linear variable-path acoustic interferometer; for mass density: Pycnometric method
[2] = refractive index (Na D-line) (dimensionless); settings: 298.15 K; 101.33 kPa; Liquid; Standard Abbe refractometry
[3] = refractive index (Na D-line) (dimensionless); xn = mol fraction of the nth substance listed; settings: 298.15 K, 101 kPa, Liquid, Standard Abbe refractometry
[4] = xn = mol fraction of the nth substance listed; settings: 101 kPa, Liquid; for viscosity: Capillary tube (Ostwald / Ubbelohde) method; for speed of sound: Linear variable-path acoustic interferometer; for mass density: Pycnometric method

CC1OC(C)OC(C)O1 (configuration not stated) [2,4,6-trimethyl-1,3,5-trioxane]
[1]
Settings	mass density [kg/m3]	speed of sound [m/s]	viscosity [mPa·s]
288.15 K	999.69	1217.7	1.374
298.15 K	988.35	1174.5	1.107

Settings	refractive index
[2]	1.4029

CC1OC(C)OC(C)O1 (configuration not stated) [2,4,6-trimethyl-1,3,5-trioxane] + CC1COC(=O)O1
[3]
Settings	refractive index
x1 = 0.091	1.4188
x1 = 0.2019	1.4172
x1 = 0.3007	1.4157
x1 = 0.4055	1.4142
x1 = 0.5011	1.4127
x1 = 0.6022	1.4111
x1 = 0.7006	1.4094

[4]
Settings	mass density, 288.15 K [kg/m3]	mass density, 298.15 K [kg/m3]	speed of sound, 288.15 K [m/s]	speed of sound, 298.15 K [m/s]	viscosity, 288.15 K [mPa·s]	viscosity, 298.15 K [mPa·s]
x1 = 0.091	1181.68	1170.78	1451.8	1415	2.966	2.386
x1 = 0.2019	1151.81	1141.1	1420.2	1382.6	2.809	2.245
x1 = 0.3007	1127.63	1117.02	1392.9	1354.5	2.661	2.116
x1 = 0.4055	1104.07	1093.5	1364.7	1325.5	2.494	1.977
x1 = 0.5011	1084.21	1073.63	1339.7	1299.9	2.333	1.846
x1 = 0.6022	1064.71	1054.05	1314	1273.4	2.155	1.705
x1 = 0.7006	1046.98	1036.19	1289.8	1248.5	1.974	1.563
x1 = 0.8028	1029.73	–	1265.5	–	1.779	–
x1 = 0.9027	1014	–	1242.1	–	1.581	–
x1 = 1	999.69	–	1217.7	–	1.374	–

CC1COC(=O)O1 (configuration not stated) [4-methyl-1,3-dioxolan-2-one]
[1]
Settings	mass density [kg/m3]	speed of sound [m/s]	viscosity [mPa·s]
288.15 K	1208.67	1478.4	3.086
298.15 K	1197.58	1442.3	2.499

Settings	refractive index
[2]	1.4203

CC1COC(=O)O1 (configuration not stated) [4-methyl-1,3-dioxolan-2-one] + CC1OC(C)OC(C)O1
Settings	refractive index
[3], x2 = 0	1.4203

[4], x2 = 0
Settings	mass density [kg/m3]	speed of sound [m/s]	viscosity [mPa·s]
288.15 K	1208.67	1478.4	3.086
298.15 K	1197.58	1442.3	2.499

CCOC(=O)OCC [diethyl carbonate]
[1]
Settings	mass density [kg/m3]	speed of sound [m/s]	viscosity [mPa·s]
288.15 K	980.41	1225.6	0.868
298.15 K	969.15	1173.4	0.749

Settings	refractive index
[2]	1.383

CCOC(=O)OCC [diethyl carbonate] + CC1OC(C)OC(C)O1
Settings	refractive index
[3], x2 = 0	1.383

[4], x2 = 0
Settings	mass density [kg/m3]	speed of sound [m/s]	viscosity [mPa·s]
288.15 K	980.41	1225.6	0.868
298.15 K	969.15	1173.4	0.749

COC(=O)OC [dimethyl carbonate]
[1]
Settings	mass density [kg/m3]	speed of sound [m/s]	viscosity [mPa·s]
288.15 K	1076.43	1242	0.647
298.15 K	1063.1	1197.4	0.579

Settings	refractive index
[2]	1.366

COC(=O)OC [dimethyl carbonate] + CC1OC(C)OC(C)O1
Settings	refractive index
[3], x2 = 0	1.366

[4], x2 = 0
Settings	mass density [kg/m3]	speed of sound [m/s]	viscosity [mPa·s]
288.15 K	1076.43	1242	0.647
298.15 K	1063.1	1197.4	0.579
